Laboratory results from PubChem BioAssay AID330 (DTP/NCI, 2004).
Where “and” joins values, the source holds several entries; their conditions need not be identical. Equal values may be shown once. Toxic doses and inconclusive results are not listed.

Test system: P388 leukemia ip, CD2F1 mice, survival T/C
Assay: NCI In Vivo Anticancer Drug Screen. Data for tumor model P388 Leukemia (intraperitoneal) in CD2F1 (CDF1) mice
Settings: endpoint: median survival time, higher = longer survival
In short: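 Mice carrying the transplanted tumor received test compound or vehicle. Survival was recorded in each group, and the value is the treated-group measurement divided by that of the vehicle-treated control group.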

[1] = dose: 50.0 mg/kg/injection, schedule: Q01DX005 (ip), vehicle: Klucel (hydroxypropylcellulose) (HPC)
[2] = dose: 100.0 mg/kg/injection, schedule: Q01DX005 (ip), vehicle: Klucel (hydroxypropylcellulose) (HPC)
[3] = dose: 200.0 mg/kg/injection, schedule: Q01DX005 (ip), vehicle: Klucel (hydroxypropylcellulose) (HPC)
[4] = dose: 60.0 mg/kg/injection, schedule: Q01DX005 (ip), vehicle: saline with Tween-80
[5] = dose: 120.0 mg/kg/injection, schedule: Q01DX005 (ip), vehicle: saline with Tween-80
[6] = dose: 240.0 mg/kg/injection, schedule: Q01DX005 (ip), vehicle: saline with Tween-80
[7] = dose: 25.0 mg/kg/injection, schedule: Q01DX009 (ip), vehicle: saline
[8] = dose: 50.0 mg/kg/injection, schedule: Q01DX009 (ip), vehicle: saline
[9] = dose: 100.0 mg/kg/injection, schedule: Q01DX009 (ip), vehicle: saline
[10] = dose: 200.0 mg/kg/injection, schedule: Q01DX009 (ip), vehicle: saline
[11] = dose: 200.0 mg/kg/injection, schedule: Q01DX001 (ip), vehicle: Klucel (hydroxypropylcellulose) (HPC)
[12] = dose: 50.0 mg/kg/injection, schedule: Q01DX009 (ip), vehicle: Klucel (hydroxypropylcellulose) (HPC)
[13] = dose: 100.0 mg/kg/injection, schedule: Q01DX009 (ip), vehicle: Klucel (hydroxypropylcellulose) (HPC)
[14] = dose: 200.0 mg/kg/injection, schedule: Q01DX009 (ip), vehicle: Klucel (hydroxypropylcellulose) (HPC)
[15] = dose: 30.0 mg/kg/injection, schedule: Q01DX005 (ip), vehicle: saline with Tween-80
[16] = dose: 50.0 mg/kg/injection, schedule: Q01DX005 (ip), vehicle: saline with Tween-80
[17] = dose: 100.0 mg/kg/injection, schedule: Q01DX005 (ip), vehicle: saline with Tween-80
[18] = dose: 200.0 mg/kg/injection, schedule: Q01DX005 (ip), vehicle: saline with Tween-80
[19] = dose: 50.0 mg/kg/injection, schedule: Q01DX009 (ip), vehicle: saline with Tween-80
[20] = dose: 12.5 mg/kg/injection, schedule: Q01DX005 (ip), vehicle: Klucel (hydroxypropylcellulose) (HPC)
[21] = dose: 25.0 mg/kg/injection, schedule: Q01DX005 (ip), vehicle: Klucel (hydroxypropylcellulose) (HPC)

Cn1c(C(=O)NN)cc2cc(OCc3ccccc3)ccc21
T/C [1]: 97 % of control
T/C [2]: 100 % of control
T/C [3]: 98 % of control

Cc1ccc(NCn2c(=S)sc3ccccc32)cc1
T/C [1]: 89 % of control
T/C [2]: 88 % of control
T/C [3]: 98 % of control

O=c1[nH]cnc2nc3c(nc12)CCc1ccccc1-3
T/C [4]: 100 % of control
T/C [5]: 102 % of control
T/C [6]: 97 % of control

C[CH2][Sn]=[O].c1cc[c]([Ge]([c]2ccccc2)[c]2ccccc2)cc1
T/C [7]: 96 % of control
T/C [8]: 88 % of control and 93 % of control and 96 % of control
T/C [9]: 101 % of control and 88 % of control
T/C [10]: 121 % of control and 88 % of control and 96 % of control

O=c1[nH]c(=O)n(C2OC(CO)C(O)C2O)c(=O)[nH]1 (stereo unspecified)
T/C (dose: 60.0 mg/kg/injection, schedule: Q01DX005 (ip), vehicle: saline): 100 % of control
T/C (dose: 120.0 mg/kg/injection, schedule: Q01DX005 (ip), vehicle: saline): 95 % of control
T/C (dose: 240.0 mg/kg/injection, schedule: Q01DX005 (ip), vehicle: saline): 96 % of control

O=[N+]([O-])c1ccccc1N/N=C\c1cccc2c(/C=N/Nc3ccccc3[N+](=O)[O-])c(Cl)n(-c3ccccc3)c12
T/C [11]: 88 % of control

CC(C)c1cc(O)c2c(c1O)C1CC3C(C)(C)CCC[C@]23C(=O)O1 (stereo partly specified)
T/C (dose: 4.88 mg/kg/injection, schedule: Q01DX005 (ip), vehicle: Klucel (hydroxypropylcellulose) (HPC)): 95 % of control
T/C (dose: 9.75 mg/kg/injection, schedule: Q01DX005 (ip), vehicle: Klucel (hydroxypropylcellulose) (HPC)): 100 % of control
T/C (dose: 19.5 mg/kg/injection, schedule: Q01DX005 (ip), vehicle: Klucel (hydroxypropylcellulose) (HPC)): 100 % of control
T/C (dose: 39.0 mg/kg/injection, schedule: Q01DX005 (ip), vehicle: Klucel (hydroxypropylcellulose) (HPC)): 96 % of control

COc1ccc(/C=C2\SC(=O)N(C)C2=O)cc1OC
T/C [1]: 88 % of control
T/C [2]: 89 % of control

COc1ccc(/C(C#N)=C/c2cccs2)cc1
T/C [12]: 111 % of control
T/C [13]: 102 % of control
T/C [14]: 104 % of control

Cc1ccc2c(c1)nc(N)n2N
T/C (dose: 100.0 mg/kg/injection, schedule: Q01DX001 (ip), vehicle: Klucel (hydroxypropylcellulose) (HPC)): 100 % of control
T/C [11]: 98 % of control
T/C (dose: 400.0 mg/kg/injection, schedule: Q01DX001 (ip), vehicle: Klucel (hydroxypropylcellulose) (HPC)): 89 % of control

CN1C(NC(=O)C(C)(C)O)C(C)(C)C(C)(C)C1NC(=O)C(C)(C)O (stereo unspecified)
T/C [15]: 121 % of control
T/C [4]: 123 % of control
T/C [5]: 151 % of control
T/C [6]: 123 % of control

Cc1ccc([Si]23OC(C)CN(CC(C)O2)CC(C)O3)cc1 (stereo unspecified)
T/C [16]: 100 % of control
T/C [17]: 109 % of control
T/C [18]: 100 % of control

COc1cc(C2c3c(oc4ccccc4c3=O)Oc3oc4ccccc4c(=O)c32)cc(OC)c1O
T/C (dose: 15.0 mg/kg/injection, schedule: Q01DX005 (ip), vehicle: saline with Tween-80): 92 % of control
T/C [15]: 96 % of control
T/C [4]: 92 % of control
T/C [5]: 95 % of control
T/C [6]: 98 % of control

CC(=O)OCN1C(=O)C2C3C=CC(C2C1=O)C1C2C(=O)N(COC(C)=O)C(=O)C2C31 (stereo unspecified)
T/C (dose: 25.0 mg/kg/injection, schedule: Q01DX009 (ip), vehicle: saline with Tween-80): 117 % of control
T/C [19]: 115 % of control
T/C (dose: 200.0 mg/kg/injection, schedule: Q01DX009 (ip), vehicle: saline with Tween-80): 180 % of control
T/C (dose: 400.0 mg/kg/injection, schedule: Q01DX009 (ip), vehicle: saline with Tween-80): 208 % of control

O=C1Nc2ccccc2/C1=N/n1c(-c2ccccc2)nc2ccccc2c1=O
T/C [20]: 97 % of control
T/C [21]: 97 % of control
T/C [1]: 87 % of control
T/C [2]: 90 % of control
T/C [3]: 89 % of control

Cc1cc(=O)c2c(ccc3[nH]c(-c4ccco4)nc32)[nH]1
T/C (dose: 100.0 mg/kg/injection, schedule: Q01DX001 (ip), vehicle: saline with Tween-80): 94 % of control
T/C (dose: 200.0 mg/kg/injection, schedule: Q01DX001 (ip), vehicle: saline with Tween-80): 100 % of control
T/C (dose: 400.0 mg/kg/injection, schedule: Q01DX001 (ip), vehicle: saline with Tween-80): 92 % of control

CCOP(=O)(OCC)C1CCCN2CCc3cc(OC)c(OC)cc3C12 (stereo unspecified)
T/C [8]: 91 % of control
T/C [9]: 98 % of control
T/C [10]: 95 % of control

N#Cc1ccoc1
T/C [20]: 93 % of control
T/C [21]: 102 % of control
T/C [1]: 104 % of control

CN(C)CCN1C(=O)Cc2ccccc2C1=O
T/C (dose: 12.5 mg/kg/injection, schedule: Q01DX001 (ip), vehicle: saline): 111 % of control
T/C (dose: 25.0 mg/kg/injection, schedule: Q01DX001 (ip), vehicle: saline): 109 % of control
T/C (dose: 50.0 mg/kg/injection, schedule: Q01DX001 (ip), vehicle: saline): 101 % of control

[N-]=[N+]=Nc1ccnc2cc(C(F)(F)F)ccc12
T/C [4]: 103 % of control
T/C [5]: 100 % of control
T/C [6]: 96 % of control

C[CH2][Sn]1([CH2]C)[c]2ccccc2Oc2cccc[c]21
T/C [19]: 109 % of control
T/C (dose: 100.0 mg/kg/injection, schedule: Q01DX009 (ip), vehicle: saline with Tween-80): 109 % of control

CC1=CC(=Nc2cc(Br)c(O)c(Br)c2)C=CC1=O
T/C (dose: 6.25 mg/kg/injection, schedule: Q01DX005 (ip), vehicle: saline): 100 % of control
T/C (dose: 12.5 mg/kg/injection, schedule: Q01DX005 (ip), vehicle: saline): 100 % of control
T/C (dose: 25.0 mg/kg/injection, schedule: Q01DX005 (ip), vehicle: saline): 105 % of control

Cc1nnsc1-c1nc2ccccc2[nH]1
T/C [1]: 95 % of control
T/C [2]: 102 % of control
T/C [3]: 104 % of control

Cc1ccc2nc(NC(=S)NCCCCNC(=S)Nc3ccc4cc(C)ccc4n3)ccc2c1
T/C [12]: 98 % of control
T/C [13]: 94 % of control
T/C [14]: 89 % of control

CNc1ccc2c(c1)C(=O)c1c(C)n(C)c3cccc-2c13
T/C [16]: 98 % of control

C[n+]1ccc(Nc2ccc(NC(=O)c3ccc(Nc4cc[n+](C)c5ccc([N+](=O)[O-])cc45)cc3)cc2)cc1
T/C (dose: 2.0 mg/kg/injection, schedule: Q01DX009 (ip), vehicle: saline): 164 % of control
T/C (dose: 4.0 mg/kg/injection, schedule: Q01DX009 (ip), vehicle: saline): 158 % of control and 178 % of control
T/C (dose: 8.0 mg/kg/injection, schedule: Q01DX009 (ip), vehicle: saline): 177 % of control and 195 % of control
T/C (dose: 16.0 mg/kg/injection, schedule: Q01DX009 (ip), vehicle: saline): 226 % of control and 257 % of control
T/C (dose: 32.0 mg/kg/injection, schedule: Q01DX009 (ip), vehicle: saline): 281 % of control and 288 % of control
T/C (dose: 64.0 mg/kg/injection, schedule: Q01DX009 (ip), vehicle: saline): 121 % of control

Cc1ccc(NC(=O)NCc2ccco2)cc1[N+](=O)[O-]
T/C [1]: 96 % of control
T/C [2]: 96 % of control
T/C [3]: 89 % of control

CC(OC(=O)c1ccccc1C(=O)O)c1ccccc1 (stereo unspecified)
T/C (dose: 12.5 mg/kg/injection, schedule: Q01DX009 (ip), vehicle: saline): 91 % of control
T/C [7]: 99 % of control and 101 % of control
T/C [8]: 101 % of control and 108 % of control and 98 % of control
T/C [9]: 104 % of control
T/C [10]: 186 % of control

CCCCCC(=O)C(C)(c1nc2nnc(N)n2[nH]c1=O)c1nc2nnc(N)n2[nH]c1=O
T/C [16]: 93 % of control
T/C [17]: 93 % of control
T/C [18]: 94 % of control

Cc1cc2c(c(Br)c1O)Oc1c(cc(C)c(O)c1Br)C21OC(=O)c2ccccc21
T/C [16]: 110 % of control
T/C [17]: 106 % of control
T/C [18]: 105 % of control

CCC(c1ccc(OCC(=O)NCCCl)cc1)C(CC)c1ccc(OCC(=O)NCCCl)cc1 (stereo unspecified)
T/C [8]: 97 % of control
T/C [9]: 93 % of control
T/C [10]: 88 % of control

COc1ccc(Cc2ccc3c(c2)OCO3)cc1C
T/C (dose: 50.0 mg/kg/injection, schedule: Q01DX005 (ip), vehicle: saline): 104 % of control
T/C (dose: 100.0 mg/kg/injection, schedule: Q01DX005 (ip), vehicle: saline): 104 % of control
T/C (dose: 200.0 mg/kg/injection, schedule: Q01DX005 (ip), vehicle: saline): 111 % of control

CCOC(=O)c1sc(SC)c2c(N)nc(C)nc12
T/C [16]: 98 % of control
T/C [17]: 94 % of control
T/C [18]: 95 % of control
